Experiment [1] concerns the target T1, SHP2 (full length) (Homo sapiens, UniProt Q06124).
T1 construct: SHP2 (full length, diluted to 100 pM final concentration in reaction buffer, BPS bioscience, US); purchased BPS bioscience, US
T1 sequence (Q06124 1-593): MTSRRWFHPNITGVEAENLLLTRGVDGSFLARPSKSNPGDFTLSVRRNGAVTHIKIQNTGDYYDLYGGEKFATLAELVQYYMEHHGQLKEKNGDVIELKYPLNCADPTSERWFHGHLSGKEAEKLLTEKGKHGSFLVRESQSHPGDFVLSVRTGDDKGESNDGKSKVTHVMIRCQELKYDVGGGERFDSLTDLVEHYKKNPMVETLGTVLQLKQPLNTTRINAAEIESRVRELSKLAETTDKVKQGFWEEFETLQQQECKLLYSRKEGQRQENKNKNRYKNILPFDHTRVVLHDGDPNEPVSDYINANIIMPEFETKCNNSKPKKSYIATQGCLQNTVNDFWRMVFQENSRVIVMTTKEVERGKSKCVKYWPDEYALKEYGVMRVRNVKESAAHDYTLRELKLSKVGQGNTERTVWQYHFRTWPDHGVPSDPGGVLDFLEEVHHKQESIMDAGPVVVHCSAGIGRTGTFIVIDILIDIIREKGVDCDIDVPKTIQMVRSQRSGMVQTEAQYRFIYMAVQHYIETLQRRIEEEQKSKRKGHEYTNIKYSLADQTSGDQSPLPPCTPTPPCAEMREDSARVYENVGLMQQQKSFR
As to the kind of experiment: Phosphatase assay (PTPase assay) with DiFMUP substrate. The settings on record: SHP2 activated with SHP2 activating peptide; DiFMUP 80 μM, 2 hours; fluorescence; read-out: IC50 (PTPase aS say). It is filed as biochemical.

Experiment [2] deals with phospho-ERK in MIA PaCa2 or H358 cells. The experiment in a line: Phospho-ERK assay (AlphaLisa). In kind it is cell-based. The settings on record: MIA PaCa2 or H358 cells, compound incubated 1.5 hours, read-out: IC50 (p-ERK).

Where two headings read alike, the source gives them in different places.

By IC50 is commonly meant the concentration that gives 50% inhibition.

On to `COCCn1cnc2ccc(Sc3cnc(N4CCC5(CC4)Cc4ncsc4[C@H]5N)c(C(N)=O)n3)c(Cl)c2c1=O` [Example 171, (S)-3-(6-amino-4,6-dihydrospiro[cyclopenta[d]thiazole-5,4′-piperidin]-1′-yl)-6-((5-chloro-3-(2-methoxyethyl)-4-oxo-3,4-dihydroquinazolin-6-yl)thio)pyrazine-2-carboxamide], for which the IC50 is less than 3 nM in experiment [1] and less than 45 nM in experiment [2] (1.5 h).

In the case of `COCCn1cnc2ccc(Sc3nc(CO)c(N4CCC5(CC4)CO[C@@H](C)[C@H]5N)nc3C)c(Cl)c2c1=O` [Example 131], the values for the IC50 in experiment [1] and in experiment [2] were 3 to 100 nM and 45 to 1500 nM, respectively.

Turning to `CC1(N)CCN(c2cnc(Sc3ccc4ncn(Cc5cccc([N+](=O)[O-])c5)c(=O)c4c3Cl)cn2)CC1` [Example 14, 6-((5-(4-amino-4-methylpiperidin-1-yl)pyrazin-2-yl)thio)-5-chloro-3-(3-nitrobenzyl)quinazolin-4(3H)-one], the IC50 in experiment [1] lay in the range of 3 to 100 nM; in experiment [2] (1.5 h), 45 to 1500 nM.

For `C[C@@H]1OCC2(CCN(c3cnc(Sc4ccc5ncn(Cc6cccnc6)c(=O)c5c4Cl)cn3)CC2)[C@@H]1N` [Example 20, 6-((5-((3S,4S)-4-amino-3-methyl-2-oxa-8-azospiro[4.5]decan-8-yl)pyrazin-2-yl)thio)-5-chloro-3-(pyridin-3-ylmethyl)quinazolin-4H-one], the figures for the IC50 in experiment [1] and in experiment [2] (1.5 h) were less than 3 nM and less than 45 nM, respectively.

On to `N[C@H]1c2ccccc2CC12CCN(c1cnc(Sc3ccc4ncn(CC5CCOC5)c(=O)c4c3Cl)cn1)CC2` (stereo partly drawn) [Example 104, 6-((5-((R)-1-amino-1,3-dihydrospiro(indene-2,4′-piperidin]-1′-yl]pyrazin-2-yl]thio)-5-chloro-3-((tetrahydrofuran-3-yl)methyl)quinazolin-4(3H)-one], for which the results for the IC50 in experiment [1] and in experiment [2] (1.5 h) were less than 3 nM and less than 45 nM, respectively.

Regarding `COC(C)Cn1cnc2ccc(Sc3ncc(N4CCC5(CC4)Cc4ncsc4[C@H]5N)nc3N)c(Cl)c2c1=O` (some centres unmarked) [Example 176], the results for the IC50 in experiment [1] and in experiment [2] (1.5 h) were less than 3 nM and less than 45 nM, respectively.

As to `C[C@@H]1OCC2(CCN(c3cnc(Sc4ccc5ncn(C6CCCCC6)c(=O)c5c4Cl)cn3)CC2)[C@@H]1N` [Example 91, 6-((5-((3S,4S)-4-amino-3-methyl-2-oxa-8-azaspiro[4.5]decan-8-yl)pyrazin-2-yl)thio)-5-chloro-3-cyclohexylquinazolin-4(3H)-one], the IC50 is 3 to 100 nM in experiment [1] and 45 to 1500 nM in experiment [2] (1.5 h).

On to `C[C@@H]1OCC2(CCN(c3cnc(Sc4ccc5ncn(Cc6ccc(F)cc6)c(=O)c5c4Cl)cn3)CC2)[C@@H]1N` [Example 40, 6-((5-((3S,4S)-4-amino-3-methyl-2-oxa-8-azaspiro[4.5]decan-8-yl)pyrazin-2-yl)thio)-5-chloro-3-(4-fluorobenzyl)quinazolin-4(3H)-one], for which the IC50 in experiment [1] was less than 3 nM; in experiment [2] (1.5 h) it was 45 to 1500 nM.

`COC(=O)c1cccc(Sc2cnc(N3CCC(C)(N)CC3)cn2)c1Cl` [Example 1, methyl 3-((5-(4-amino-4-methylpiperidin-1-yl)pyrazin-2-yl)thio)-2-chlorobenzoate]: the IC50 in experiment [1] was 3 to 100 nM; in experiment [2] (1.5 h) it was 45 to 1500 nM.

Take `N[C@H]1c2cccnc2CC12CCN(c1cnc(Sc3ccc4ncn(Cc5cccnc5)c(=O)c4c3Cl)cn1)CC2` [Example 106, (R)-6-((5-(5-amino-5,7-dihydrospiro[yclopenta[b]pyridine-6,4′-piperidin]-1′-yl)pyrazin-2-yl)thio)-5-chloro-(3-pyridin-3-ylmethyl)quinazolin-4(3H)-one]: the figures for the IC50 in experiment [1] and in experiment [2] (1.5 h) were 3 to 100 nM and 45 to 1500 nM, respectively.

Take `Cn1c(N2CCCN(CCCN)CC2)nc(N)c(Sc2cccc(Cl)c2Cl)c1=O` [Example 201, 6-amino-2-(4-(3-aminopropyl)-1,4-diazepan-1-yl)-5-((2,3-dichlorophenyl)thio)-3-methylpyrimidin-4(3H)-one]: the IC50 is greater than 100 nM in experiment [1] and greater than 1500 nM in experiment [2] (1.5 h).

Consider `COCCCn1cnc2ccc(Sc3cnc(N4CCC5(CC4)CO[C@@H](C)[C@H]5N)cn3)c(Cl)c2c1=O` [Example 94, 6-((5-((3S,4S)-4-amino-3-methyl-2-oxa-8-azaspiro[4.5]decan-8-yl)pyrazin-2-yl)thio)-5-chloro-3-(3-methoxypropyl)quinazolin-4(3H)-one], for which the IC50 in experiment [1] was less than 3 nM; in experiment [2] (1.5 h) it was greater than 1500 nM.

For `COCCn1cnc2ccc(Sc3cnc(N4CCC5(CC4)Cc4ncsc4[C@H]5N)c(CO)n3)c(Cl)c2c1=O` [Example 169, (S)-6-((5-(6-amino-4,6-dihydrospiro[yclopenta[d]thiazole-5,4′-piperidin]-1′-yl)-6-(hydroxymethyl)pyrazin-2-yl)thio)-5-chloro-3-(2-methoxyethyl)quinazolin-4(3H)-one], the IC50 in experiment [1] was less than 3 nM; in experiment [2] (1.5 h) it was less than 45 nM.

In the case of `COCCn1cnc2ccc(Sc3cnc(N4CCC5(CCC[C@H]5N)CC4)cn3)c(Cl)c2c1=O` [Example 180, (R)-6-((5-(1-amino-8-azaspiro[4.5]decan-8-yl)pyrazin-2-yl)thio)-5-chloro-3-(2-methoxyethyl)quinazolin-4(3H)-one], the IC50 is less than 3 nM in experiment [1] and 45 to 1500 nM in experiment [2] (1.5 h).

Take `C[C@@H]1OCC2(CCN(c3cnc(Sc4ccc5ncn(CC6(F)COC6)c(=O)c5c4Cl)cn3)CC2)[C@@H]1N` [Example 80, 6-((5-((3S,4S)-4-amino-3-methyl-2-oxa-8-azaspiro[4.5]decan-8-yl)pyrazin-2-yl)thio)-5-chloro-3-((3-fluorooxetan-3-yl)methyl)quinazolin-4(3H)-one]: the IC50 is less than 3 nM in experiment [1] and less than 45 nM in experiment [2] (1.5 h).

For the compound `CC1(CN)CCN(c2cnc(Sc3ccc4ncn(Cc5ccccc5)c(=O)c4c3Cl)cn2)CC1` [Example 13, 6-((5-(4-(aminomethyl)-4-methylpiperidin-1-yl)pyrazin-2-yl)thio)-3-benzyl-5-chloroquinazolin-4(3H)-one], the IC50 lay in the range of 3 to 100 nM in experiment [1] and 45 to 1500 nM in experiment [2].

Consider `COCCn1cnc2ccc(Sc3cnc(N4CCC5(CC4)CO[C@@H](C)[C@H]5N)c(CO)n3)c(Cl)c2c1=O` [Example 153, 6-[5-[(3S,4S)-4-amino-3-methyl-2-oxa-8-azaspiro[4.5]decan-8-yl]-6-(hydroxymethyl)pyrazin-2-yl]sulfanyl-5-chloro-3-(2-methoxyethyl)quinazolin-4-one], for which the IC50 in experiment [1] is less than 3 nM; in experiment [2] (1.5 h), less than 45 nM.

Turning to `COCCn1cnc2ccc(Sc3cnc(N4CCC5(CC4)Cc4nc(Cl)sc4[C@H]5N)cn3)c(Cl)c2c1=O` [Example 161, 6-[5-[(6S)-6-amino-2-chloro-spiro[4,6-dihydrocyclopenta[d]thiazole-5,4′-piperidin]-1′-yl]pyrazin-2-yl]sulfanyl-5-chloro-3-(2-methoxyethyl)quinazolin-4-one], the results for the IC50 in experiment [1] and in experiment [2] (1.5 h) were less than 3 nM and less than 45 nM, respectively.

In the case of `Cn1c(N2CCN(CC(N)CCc3ccccc3)CC2)nc(N)c(Sc2cccc(Cl)c2Cl)c1=O` (centres unmarked) [Example 189, 6-amino-2-(4-(2-amino-4-phenylbutyl)piperazin-1-yl)-5-((2,3-dichlorophenyl)thio)-3-methylpyrimidin-4(3H)-one], the IC50 in experiment [1] is greater than 100 nM; in experiment [2] (1.5 h) it was greater than 1500 nM.

On to `C[C@@H]1OCC2(CCN(c3cnc(Sc4ccc5ncn(CCN6CCOC6=O)c(=O)c5c4Cl)cn3)CC2)[C@@H]1N` [Example 114], for which the results for the IC50 in experiment [1] and in experiment [2] (1.5 h) were less than 3 nM and less than 45 nM, respectively.

As to `Cc1nc2ccc(Sc3cnc(N4CCC(C)(CN)CC4)cn3)c(Cl)c2c(=O)n1Cc1ccccc1` [Example 23, 6-((5-(4-(aminomethyl)-4-methylpiperidin-1-yl)pyrazin-2-yl)thio)-3-benzyl-5-chloro-2-methylquinazolin-4(3H)-one], the figures for the IC50 in experiment [1] and in experiment [2] (1.5 h) were 3 to 100 nM and 45 to 1500 nM, respectively.

As to `Cn1c(N2CCN(CCN)CC2)nc(N)c(-c2cccc(Cl)c2Cl)c1=O` [Example 195], the IC50 in experiment [1] was greater than 100 nM; in experiment [2] (1.5 h), greater than 1500 nM.

Regarding `Cn1c(N2CCN(CCCN)CC2)nc(N)c(Sc2cccc(Cl)c2Cl)c1=O` [Example 199, 6-amino-2-(4-(3-aminopropyl)piperazin-1-yl)-5-((2,3-dichlorophenyl)thio)-3-methylpyrimidin-4(3H)-one], the IC50 in experiment [1] is greater than 100 nM; in experiment [2] (1.5 h) it was greater than 1500 nM.

As to `COc1ccc(C)cc1Cn1cnc2ccc(Sc3cnc(N4CCC5(CC4)CO[C@@H](C)[C@H]5N)cn3)c(Cl)c2c1=O` [Example 93, 6-((5-((3S,4S)-4-amino-3-methyl-2-oxa-8-azaspiro[4.5]decan-8-yl)pyrazin-2-yl)thio)-5-chloro-3-(2-methoxy-5-methylbenzyl)quinazolin-4(3H)-one], the IC50 in experiment [1] is less than 3 nM; in experiment [2] (1.5 h), less than 45 nM.

Consider `C[C@@H]1OCC2(CCN(c3cnc(Sc4ccc5nc(Cc6cccnc6)[nH]c5c4Cl)cn3)CC2)[C@@H]1N` [Example 137, (3S,4S)-8-(5-((7-chloro-2-(pyridin-3-ylmethyl)-1H-benzo[d]imidazol-6-yl)thio)pyrazin-2-yl)-3-methyl-2-oxa-8-azaspiro[4.5]decan-4-amine], for which the IC50 was 3 to 100 nM in experiment [1] and 45 to 1500 nM in experiment [2] (1.5 h).
